Several values for one entry are separate records, joined by “and”; a condition that tells them apart may be missing. Equal entries are not always repeated. Where two headings read alike, the source gives them in different places.
What was measured:
[1] = target: T1, human delta subtype 2 opioid receptor (Homo sapiens, UniProt P41143); experiment: Human Delta Opioid Receptor Binding Assay (CHO membranes, 3H-Naltrindole); conditions: read-out: hKi δ
T1 construct: purchased Perkin Elmer RBHODM400UA; host or cells: Chinese Hamster Ovary cells (recombinant expression)
T1 sequence (P41143 whole entry): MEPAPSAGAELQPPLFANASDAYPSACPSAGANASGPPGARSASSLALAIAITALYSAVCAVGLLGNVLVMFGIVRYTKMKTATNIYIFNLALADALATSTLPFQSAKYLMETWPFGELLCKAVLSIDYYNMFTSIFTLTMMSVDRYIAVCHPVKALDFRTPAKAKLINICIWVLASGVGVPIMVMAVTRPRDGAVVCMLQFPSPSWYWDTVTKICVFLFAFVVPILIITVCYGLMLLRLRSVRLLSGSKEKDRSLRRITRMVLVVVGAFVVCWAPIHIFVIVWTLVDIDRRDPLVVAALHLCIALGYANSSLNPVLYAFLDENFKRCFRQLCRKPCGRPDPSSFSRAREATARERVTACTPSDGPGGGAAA
Summary of the method: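 Filtration binding on CHO-cell membranes expressing the human receptor, in 50 mM Tris pH 7.5 with 5 mM MgCl2, 30 min at room temperature; 3H-naltrindole diluted to 6 nM before mixing 1:1 with compound. Nonspecific binding defined with 1 μM unlabelled naltrindole; inhibition relative to no-inhibitor wells.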

[2] = test system: novel environment-stressed mice; experiment: In Vivo Assay-Stress-Induced Fecal Output (Fecal Output for 1 hr); parameters: species or system mouse; conditions: for Fecal Output (# pellets) cpd: novel environment-stressed mice; for Fecal Output (# pellets) cpd / response vs control in vivo at 30 mg/kg / response vs control in vivo at 10 mg/kg: 1 hr; for response vs control in vivo at 30 mg/kg / response vs control in vivo at 10 mg/kg: Mus musculus, po, 1 h
Summary of the method: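 Adult male Crl:CD-1(ICR) mice (˜30-35 g; at least 10 per dose group) were split into acclimated non-stressed controls, held individually for 16-18 hr in wire-mesh-bottom cages, and non-acclimated stressed groups. Mice were dosed intragastrically with vehicle or test compound in 0.5% methylcellulose, housed individually in novel cages over absorbent cardboard, and fecal pellets per mouse were counted hourly.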

male CD-1 mice [3] = experiment: In Vivo Assay: Stress-Induced Entire GI Tract Transit (MEGIT, MEGIT-NES, MEGIT-RS); parameters: species or system mouse; conditions: dose 20 p.o., restraint stress
Experimental: Methods: The animals used in these studies are male CD-1 mice, ave. wt. ˜30 g. Procedure: Mice were housed in LAM under 12 h/12 h light/dark cycle, food & water ad lib. On the day before the experiments, the mice assigned to the “acclimated” (non-stressed) control group were placed into individual wire mesh-bottomed cages, provided food and water ad lib. The acclimated control group was in this new environment for 16-18 hrs prior to beginning the test. On the day of the experiment, mice assigned to experimental groups were housed in home cages were transported to procedure room and remain in their home cages until the start of the transit portion of the study. […] After the carmine marker was administered each mouse was placed in the novel environment cage. One hour after administration of carmine, the fecal pellet output of each animal was recorded. At one-hour intervals thereafter the fecal pellets were examined for the presence of carmine-dye. The number of mice that excreted a carmine-containing fecal pellet at the end of each hour post carmine administration was recorded, until all mice had excreted carmine in a fecal pellet or the end of 6 hrs post carmine administration, whichever occurred first. A variant of this novel environment stress (NES) paradigm is to use the same procedures of dye and compound administrations, but to use restraint (confinement in a small plastic tube for 3 hr) as a stressor (RS=restraint stress), followed by two hours in an individual cage (total of 5 hr fecal transit time). […] The mouse entire GI tract (MEGIT) transit test can thus be done in mice that are all acclimated (non-stressed), in which case the data are expressed as % control (vehicle only), or in mice that are exposed to NES or RS, in which cases the data are expressed as % of the vehicle treated NES or RS group.

male CD-1 mice [4] = experiment: In Vivo Assay: Upper GI Tract Transit (MUGIT); conditions: Mus musculus, po, 1 h, dose 30 (mg), p.o., read-out: upper GI transit (% ctrl)
Experimental: Methods: The animals used in these studies were male CD-1 mice, ave. wt. ˜30 g. Mice were housed under 12 h/12 h light/dark cycle, food & water ad lib. On the day of the experiment mice were assigned to experimental groups, including one vehicle-only group (=control). At 30 min before administration of carmine dye, animals were dosed with vehicle or vehicle-plus-compound, mice were returned to their home cages after drug administration. After administration of carmine, the animals were either returned to their home cages (non-stressed) or individually placed in the same metal cages as used in the fecal output or entire GI tract transit to induce a novel environment stress. One hour after administration of carmine, mice were sacrificed by cervical dislocation, the abdomen opened midventrally, the small intestine from pylorus to cecum was removed, the mesentery divided in order to lay the intestine straight & flat—without stretching. The total length of intestine and the length of carmine-dyed intestine were measured in order to determine the percent of the upper GI tract over which transit had occurred as follows: {(Length of carmine-dyed intestine)/(Total length of intestine)}×100=% upper GI transit. The data expressed were group means±SD (or s.e.m.) and data expressed as % of control.

[5] = 30 mg/kg oral, relative to acclimated control, read-out: Fecal Output cpd % control
[6] = 30 mg/kg oral, relative to novel environment stress (NES) vehicle group, read-out: Fecal Output cpd % NES
[7] = 10 mg/kg oral, relative to acclimated control, read-out: Fecal Output cpd % control
[8] = 10 mg/kg oral, relative to novel environment stress (NES) vehicle group, read-out: Fecal Output cpd % NES

C[C@H](c1nc(-c2ccccc2)c[nH]1)N(C)C(=O)[C@@H](N)Cc1ccc(C(N)=O)cc1 [Cpd 203]
Ki [1]: 501 nM

CCN(C(=O)[C@@H](N)Cc1c(C)cc(O)cc1C)[C@H](C)c1nc(-c2ccccc2)c[nH]1 [Cpd 217]
Ki [1]: 506 nM

Cc1cc(O)cc(C)c1C[C@H](N)C(=O)N(Cc1ccccc1)[C@@H](C)c1nc(-c2ccccc2)c[nH]1 [Cpd 218]
Ki [1]: 189 nM | Fecal Output (# pellets) cpd ([2]; 30 mg/kg oral): 3.7 pellets | response vs control in vivo at 30 mg/kg [2, 5]: 138% | response vs control in vivo at 30 mg/kg [2, 6]: 35.4%

Cc1cc(C(N)=O)cc(C)c1C[C@H](N)C(=O)N(Cc1cccc(-c2nnn[nH]2)c1)[C@@H](C)c1nc(-c2ccccc2)c[nH]1 [Cpd 242]
MEGIT-RS entire GI transit 5 hr (% RS) (male CD-1 mice [3]): 100 % RS

Cc1cc(C(N)=O)cc(C)c1C[C@H](N)C(=O)N(Cc1ccc(C(=O)O)o1)[C@@H](C)c1nc(-c2ccccc2)c[nH]1 [Cpd 256]
response vs control in vivo at 30 mg (male CD-1 mice [4]): 89.7%

Cc1cc(O)cc(C)c1C[C@H](N)C(=O)N(Cc1nc(-c2ccccc2)c[nH]1)C(C)C [Cpd 194]
Ki [1]: 103 nM | Fecal Output (# pellets) cpd ([2]; 10 mg/kg oral): 11.8 pellets | response vs control in vivo at 10 mg/kg [2, 7]: 218% | response vs control in vivo at 10 mg/kg [2, 8]: 94.4%

Cc1cc(O)cc(C)c1C[C@H](N)C(=O)N(C)Cc1nc(-c2ccccc2)c[nH]1 [Cpd 199]
Ki [1]: 209 nM | response vs control in vivo at 10 mg/kg [2, 8]: 86.7%

Cc1cc(O)cc(C)c1C[C@H](N)C(=O)N(C)[C@@H](C)c1nc(Cc2ccccc2)c[nH]1 [Cpd 205]
Fecal Output (# pellets) cpd ([2]; 30 mg/kg oral): 2.3 pellets | response vs control in vivo at 30 mg/kg [2, 5]: 70.7% | response vs control in vivo at 30 mg/kg [2, 6]: 24.6%

Cc1cc(O)cc(C)c1C[C@H](N)C(=O)N(C)[C@@H](C)c1nc(-c2ccccc2)c[nH]1 [Cpd 207]
Ki [1]: 132 nM | response vs control in vivo at 30 mg/kg [2, 6]: 49.6% | # of pellets, Compound (m) 0.3 ([2]; dose 0.3, oral, NES mice, fecal output 1 hr): 11.4 | Fecal pellet output, Compound (% control) 0.3 ([2]; dose 0.3, oral, NES mice, vs acclimated control): 219.2 % control | Fecal pellet output, Compound (% NES) 0.3 ([2]; dose 0.3, oral, vs vehicle NES group): 100 % NES | # of pellets, Compound (m) 0.5 ([2]; dose 0.5, oral, NES mice, fecal output 1 hr): 9.4 | Fecal pellet output, Compound (% control) 0.5 ([2]; dose 0.5, oral, NES mice, vs acclimated control): 195.8 % control | Fecal pellet output, Compound (% NES) 0.5 ([2]; dose 0.5, oral, vs vehicle NES group): 109 % NES | # of pellets, Compound (m) 3.0 ([2]; dose 3.0, oral, NES mice, fecal output 1 hr): 12 and 7.3 | Fecal pellet output, Compound (% control) 3.0 ([2]; dose 3.0, oral, NES mice, vs acclimated control): 228.8 % control and 202.8 % control | Fecal pellet output, Compound (% NES) 3.0 ([2]; dose 3.0, oral, vs vehicle NES group): 104.4 % NES and 112.3 % NES | # of pellets, Compound (m) 5.0 ([2]; dose 5.0, oral, NES mice, fecal output 1 hr): 8.6 | Fecal pellet output, Compound (% control) 5.0 ([2]; dose 5.0, oral, NES mice, vs acclimated control): 179.2 % control | Fecal pellet output, Compound (% NES) 5.0 ([2]; dose 5.0, oral, vs vehicle NES group): 100 % NES | # of pellets, Compound (m) 6.0 ([2]; dose 6.0, oral, NES mice, fecal output 1 hr): 7.5 | Fecal pellet output, Compound (% control) 6.0 ([2]; dose 6.0, oral, NES mice, vs acclimated control): 220.6 % control | Fecal pellet output, Compound (% NES) 6.0 ([2]; dose 6.0, oral, vs vehicle NES group): 69.44 % NES | # of pellets, Compound (m) 10.0 ([2]; dose 10.0, oral, NES mice, fecal output 1 hr): 4.9 and 6.7 and 5.5 and 4.8 | Fecal pellet output, Compound (% control) 10.0 ([2]; dose 10.0, oral, NES mice, vs acclimated control): 94.2 % control and 139.6 % control and 161.8 % control and 133.3 % control | Fecal pellet output, Compound (% NES) 10.0 ([2]; dose 10.0, oral, vs vehicle NES group): 42.98 % NES and 77.91 % NES and 50.93 % NES and 73.85 % NES | # of pellets, Compound (m) 30.0 ([2]; dose 30.0, oral, NES mice, fecal output 1 hr): 3.5 and 3.4 | Fecal pellet output, Compound (% control) 30.0 ([2]; dose 30.0, oral, NES mice, vs acclimated control): 103 % control and 94 % control | Fecal pellet output, Compound (% NES) 30 ([2]; dose 30, oral, vs vehicle NES group): 32.41 % NES and 52.31 % NES

Cc1ccccc1-c1nc(CN(C(=O)[C@@H](N)Cc2c(C)cc(O)cc2C)C(C)C)[nH]c1C [Cpd 165]
Ki [1]: 322 nM

COC(=O)c1cc(CN(C(=O)[C@@H](N)Cc2c(C)cc(C(N)=O)cc2C)[C@@H](C)c2nc(-c3ccccc3)c[nH]2)ccc1OC [Cpd 17]
response vs control in vivo at 30 mg (male CD-1 mice [4]): 37.3%

CCN(C(=O)[C@@H](N)Cc1c(C)cc(O)cc1C)[C@@H](C)c1nc(-c2ccccc2)c[nH]1 [Cpd 216]
Fecal Output (# pellets) cpd ([2]; 10 mg/kg oral): 4.9 pellets | response vs control in vivo at 10 mg/kg [2, 7]: 136% | response vs control in vivo at 10 mg/kg [2, 8]: 47.6%

Cc1cc(C(N)=O)cc(C)c1C[C@H](N)C(=O)N(Cc1ccc(C(=O)O)cc1)[C@@H](C)c1nc(-c2ccccc2)c[nH]1 [Cpd 50]
Fecal Output (# pellets) cpd ([2]; 30 mg/kg oral): 3.3 pellets | response vs control in vivo at 30 mg/kg [2, 5]: 144% | response vs control in vivo at 30 mg/kg [2, 6]: 47.1%
